Measured values taken from patent EP0863145A2, “Sunscreen compositions” (F. HOFFMANN-LA ROCHE AG, priority 1997, dated 1998).

Experiment: Solubility in cosmetic solvents (Cétiol LC, Crodamol DA)
Assay type: physicochemical
Settings: solvent Cétinol LC; chromatographed product
From the text: Bezüglich der Lipophilität sind die erfindungsgemässen Verbindungen I den eingangs genannten substituierten Triazinen überlegen, indem alle Verbindungen I das im vorliegenden Fall nötige Kriterium, nämlich eine hohe Löslichkeit in kosmetischen Lösungsmitteln wie z.B. Deltyl extra (Isopropylmyristat), Arlanol E (PPG 15-Stearylether), Cétiol LC (Cocoylcapylat/-caprat) oder Crodamol DA (Diisopropyladipat) erfüllen, wie die nachfolgend beispielhaft aufgeführten Verbindungen der Formel I und deren Löslichkeiten in Cetiol LC und/oder in Crodamol DA zeigen (Tabelle II).

Q: With C[Si](C)(C)O[Si](C)(C)CCCCOc1ccc(-c2nc(-c3ccc(OCCCC[Si](C)(C)O[Si](C)(C)C)cc3O)nc(-c3ccc(OCCCC[Si](C)(C)O[Si](C)(C)C)cc3O)n2)c(O)c1 [Beispiel 10, 5,5',5''-Tris-[4-(1,1,1,3,3-pentamethyl-disiloxan-oxy)-butyl-1-oxy]-2,2',2''-(1.3.5)-triazin-2,4,6-triyl-tris-phenol] as the compound, how does the “Löslichkeit in Cétinol LC” value read?
A: 8%

Q: Which “Löslichkeit in Cétinol LC” value does the source give for C[Si](C)(C)O[Si](C)(C)CCCCCOc1ccc(-c2nc(-c3ccc(OCCCCC[Si](C)(C)O[Si](C)(C)C)cc3O)nc(-c3ccc(OCCCCC[Si](C)(C)O[Si](C)(C)C)cc3O)n2)c(O)c1 [Beispiel 9-1] here?
A: > 35%
